According to patent US10813920B2, “Drug for treating corneal endothelium by promoting cell proliferation or inhibiting cell damage” (THE DOSHISHA, priority 2013, dated 2020):

Assays:
Format in all cases: cell-based
[1] = tested on: cynomolgus monkey corneal endothelial cells; assay: BrdU ELISA, one concentration per agent, monkey corneal endothelial cells (Example 9); details: 10 μM SB203580, 1 μM Semapimod, 3 μM BIRB796, 1 μM PH-797804, 3 μM VX-702, 3 μM LY2228820, 3 μM TAK-715, * p<0.01
Method: The medium was removed from a culture dish culturing cynomolgus monkey corneal endothelial cells. PBS (-) heated to 37° C. in advance was added thereto and the cells were washed. This operation was repeated twice. After removing the PBS (-), 0.05% Trypsin-EDTA (NacalaiTesque, 35554-64) was added and the cells were incubated for 10 minutes at 37° C. (5% CO2). The cells were then suspended in DMEM (Nacalai Tesque, 08456-94)+10% FBS (Biowest, S1820-500)+1% penicillin/streptomycin (Nacalai Tesque, catalog number: 26252-94) and centrifuged for 3 minutes at 1200 rpm to collect the cells. A 96-well plate was treated with an FNC coating mix (50 ml ([…], catalog number: 0407). The monkey corneal endothelial cells (lot: 20120404-3L-P9) were seeded in the coated 96-well plate at a ratio of 3000 cells/well. The cells were cultured for 30 hours at 37° C. (5% CO2). After 30 hours, the medium was removed and changed to a serum free medium: DMEM+1% P/S to culture the cells for 18 hours. […] SMC20120918), BIRB796 (Doramapimod) (Selleck Chemicals, catalog number: S1574, lot number: S157402), PH-797804 (Selleck Chemicals, catalog number: S2726, lot number: 01), VX-702 (Selleck Chemicals, catalog number: S6005, lot number: 02), LY2228820 (Selleck Chemicals, catalog number: S1494, lot number: 01), and TAK-715 (Selleck Chemical, catalog number: […] DMSO was added to the control. After 24 hours, a BrdU labeling reagent (Amersham Cell Proliferation Biotrak ELISA System, Version 2, GE Healthcare, catalog number: RPN250) was further added at a ratio of 1:1000 to the DMEM+10% FBS+1% P/S medium. […] DMSO was added to the control. After 24 hours, BrdU ELISA was carried out with Amersham Cell Proliferation Biotrak ELISA System, Version 2 (GE Healthcare, catalog number: RPN250). The absorbance at 450 nm was measured.

[2] = tested on: human corneal endothelial cells; assay: BrdU ELISA, one concentration per agent, human corneal endothelial cells (Example 9); details: 10 μM SB203580, 1 μM Semapimod, 3 μM BIRB796, 1 μM PH-797804, 3 μM VX-702, 3 μM LY2228820, 3 μM TAK-715, * p<0.01
Method: The medium was removed from a culture dish culturing human corneal endothelial cells. PBS (-) heated to 37° C. in advance was added thereto and the cells were washed. This operation was repeated twice. After removing the PBS (-) TrypLE Select (×10) (GIBCO, A12177-01) was added and the cells were incubated for 10 minutes at 37° C. (5% CO2). The cells were then suspended in Opti-MEM (GIBCO, 31985-070) and centrifuged for 3 minutes at 1200 rpm to collect the cells. A 96-well plate was treated with an FNC coating mix (50 ml ([…], catalog number: 0407). The human corneal endothelial cells (lot: C1642-P8) were seeded in a Condition Medium for humans in the coated 96-well plate at a ratio of 3000 cells/well. The cells were cultured for 30 hours at 37° C. (5% CO2). After 30 hours, the medium was removed and changed to a serum free medium: Opti-MEM+1% P/S to culture the cells for 18 hours. […] SMC20120918), BIRB796 (Doramapimod) (Selleck Chemicals, catalog number: S1574, lot number: S157402), PH-797804 (Selleck Chemicals, catalog number: S2726, lot number: 01), VX-702 (Selleck Chemicals, catalog number: S6005, lot number: 02), LY2228820 (Selleck Chemicals, catalog number: S1494, lot number: 01), and TAK-715 (Selleck Chemical, catalog number: […] DMSO was added to the control. After 24 hours, a BrdU labeling reagent (Amersham Cell Proliferation Biotrak ELISA System, Version 2, GE Healthcare, catalog number: RPN250) was further added at a ratio of 1:1000 to the DMEM+10% FBS+1% P/S medium. […] DMSO was added to the control. After 24 hours, BrdU ELISA was carried out with Amersham Cell Proliferation Biotrak ELISA System, Version 2 (GE Healthcare, catalog number: RPN250). The absorbance at 450 nm was measured.

[3] = tested on: corneal endothelium; assay: UV-induced apoptosis of corneal endothelium in rabbit sclerocornea segments, Annexin V and DAPI staining; details: rabbit corneal tissue; UV 100 J/m^2; stored 24 hours at 4° C.; 10 μM SB203580, 3 μM BIRB796, 1 μM PH-797804, 3 μM VX-702, 3 μM LY2228820, 3 μM TAK-715
Method: The experiment used a rabbit eye ball 0-24 hours after euthanasia. Sclerocornea was removed along the corneal limbus under a stereo microscope by using spring scissors. The crystalline lens and iris were removed to make a sclerocornea segment. […] After dividing a cornea, pretreatment was applied to the Control group for 2 hours in the dark with Optisol-GS® (Bausch & Lomb) (Lot. […] After washing the cornea twice with PBS(−), 100 J/m^2 of UV was irradiated onto the corneal endothelial cells, which were against stored for 24 hours at 4° C. […] The sclerocornea segments were washed with PBS(−), and MEBCYTO-Apoptosis kit (Annexin V-FITC kit) (MBL) (Lot. 027FA) was used for Annexin V and DAPI staining. The segments were immersed and immobilized for 30 minutes in −30° C. ice-cooled 95% ethanol. In order to remove ethanol components, PBS(−) was exchanged every 5 minutes and the segments were washed three times. An antifading agent was then added and enclosed. Annexin V and nuclei was observed by fluorescence imaging under a confocal microscope. The percentage of Annexin V positive cells were calculated in the above-described rabbit corneal tissue. *p<0.05 (Dunnett's test).

Cc1ccc(-n2nc(C(C)(C)C)cc2NC(=O)Nc2ccc(OCCN3CCOCC3)c3ccccc23)cc1 [BIRB796, N-[3-tert-butyl-1-(4-methylphenyl)pyrazole-5-yl]-N′-[4-(2-morpholinoethoxy)-1-naphthyl]urea]
BrdU uptake as a percentage with respect to the control (proliferation) [1]: promotes proliferation | BrdU uptake as a percentage with respect to the control (proliferation) [2]: promotes proliferation | Apoptosis induced by UV (annexin V staining) [3]: suppressed

CC(C)(C)Cn1c(N)nc2ccc(-c3nc(C(C)(C)C)[nH]c3-c3ccc(F)cc3)nc21 [LY2228820, 5-(2-(tert-butyl)-5-(4-fluorophenyl)-1H-imidazole-4-yl)-3-neopentyl-3H-imidazo[4,5-b]pyridine-2-amine]
BrdU uptake as a percentage with respect to the control (proliferation) [1]: promotes proliferation | BrdU uptake as a percentage with respect to the control (proliferation) [2]: promotes proliferation | Apoptosis induced by UV (annexin V staining) [3]: suppressed

CNC(=O)c1ccc(C)c(-n2c(C)cc(OCc3ccc(F)cc3F)c(Br)c2=O)c1 [PH-797804, 3-(3-bromo-4-((2,4-difluorobenzyl)oxy)-6-methyl-2-oxopyridine-1(2H)-yl)-N,4-dimethylbenzamide]
BrdU uptake as a percentage with respect to the control (proliferation) [1]: promotes proliferation | BrdU uptake as a percentage with respect to the control (proliferation) [2]: promotes proliferation | Apoptosis induced by UV (annexin V staining) [3]: suppressed

C[S+]([O-])c1ccc(-c2nc(-c3ccncc3)c(-c3ccc(F)cc3)[nH]2)cc1 (stereo not drawn) [SB203580, 4-(4-fluorophenyl)-2-(4-methylsulfinylphenyl)-5-(4-pyridyl)-1H-imidazole]
BrdU uptake as a percentage with respect to the control (proliferation) [1]: promotes proliferation | BrdU uptake as a percentage with respect to the control (proliferation) [2]: promotes proliferation | Apoptosis induced by UV (annexin V staining) [3]: suppressed

CCc1nc(-c2cccc(C)c2)c(-c2ccnc(NC(=O)c3ccccc3)c2)s1 [TAK-715, 2-benzamide-4-[2-ethyl-4-(3-methylphenyl)thiazole-5-yl]pyridine]
BrdU uptake as a percentage with respect to the control (proliferation) [1]: promotes proliferation | BrdU uptake as a percentage with respect to the control (proliferation) [2]: promotes proliferation | Apoptosis induced by UV (annexin V staining) [3]: suppressed
